The numbers were not newly measured in US20210153530A1, “FOOD PROTECTING COMPOSITION FOR MEAT, MEAT PRODUCTS AND DAIRY PRODUCTS” (priority 2018, published 2021), which cites them from elsewhere.

Series [1] has as its system coliform microorganisms and arerobic spore-forming microorganisms. Particulars: raw pork goulash, heat-treated.
In series [2] the test system is moulds and yeasts. Particulars: raw pork, heat-treated and pasteurised.

Take `N=C(N)N` [guanidium]: the “influence on coliform and aerobic spore-forming microorganisms” value in series [1] is recorded as “not significantly influenced”. Besides, the “effect on growth of moulds and yeasts” value in series [2] is on record as “has an effect on the growth”.
